Measured values as given in patent publication US11197836B2, “Topical vasoconstrictor preparations and methods for protecting cells during cancer chemotherapy and radiotherapy” (WISCONSIN ALUMNI RESEARCH FOUNDATION, priority 2005, dated 2021).

Experiments:
[1] = Dissolution and 24 hr solution status of vasoconstrictor salts in ethanol:PG:water diluents, Example 6; format: physicochemical
Experimental: Aliquots of each vasoconstrictor salt were weighed into glass test tubes. The volume of liquid necessary to achieve the indicated final drug concentration was then added.
(§1) The approximate amount of heat required to dissolve the vasoconstrictor salt in each diluent is indicated. Once diluted, samples were sealed and held at room temperature (22° C.) for 24 hours and then at 4° C. for 24 hours. Skin blanch induced by the topical formulation was assessed by applying freshly made, clear formulation to human skin shortly after initial mixing. Drug solutions were monitored for the appearance of precipitated material over a 48 hour observation period.

[2] = system: human skin; test: Human skin blanch 20 min after topical application, Example 6; format: in vivo; settings: for Skin Blanch: 600 mM, human skin, 20 min after topical application
Experimental: as §1

[3] = system: human forearm skin; test: Human forearm skin blanch and irritation with permeation enhancers, Example 8; format: in vivo; settings: water
Experimental: In samples where a clear, norepinephrine-containing solution was achieved, an aliquot (˜100 μl) was applied to a ˜1 cm^2 area of human forearm skin using a cotton swab. The extent of skin blanch (i.e., dermal vasculature constriction) beneath the application site was visually scored over the 60 min following application.

[4] = system: radiation-induced alopecia; settings: 950 mM in 50:30:20 ethanol:PG:water, 10 day old rats
Experimental: At specific time points, digital images were recorded to show areas of skin blanch in the epi-treated rats.

[5] = system: human oral mucosa
Experimental: A QTip wetted with the 1 mM solution was used to swab the lower lip and oral mucosa adjoining the lower lip during the first 20 min. […] Images were taken and then scored for the degree of mucosal blanch observed.

[6] = system: radiation-induced oral mucositis; test: Radiation-induced oral mucositis in hamster cheek pouch, Example 16; settings: for mucosal pathology: hamster cheek pouch
[7] = 0:50:50 Ethanol:PG:water, 1800 mM
[8] = 0:80:20 Ethanol:PG:water, 1800 mM
[9] = 12:30:58 Ethanol:PG:water, 450 mM
[10] = 12:30:58 Ethanol:PG:water, 600 mM
[11] = 12:30:58 Ethanol:PG:water, 750 mM
[12] = 15:30:55 Ethanol:PG:water, 600 mM
[13] = 15:30:55 Ethanol:PG:water, 1000 mM
[14] = 33:33:33 Ethanol:PG:water, 1800 mM
[15] = 40:25:35 Ethanol:PG:water, 600 mM
[16] = 40:30:30 Ethanol:PG:water, 300 mM
[17] = 44:18:33 Ethanol:PG:water, 600 mM
[18] = 45:25:30 Ethanol:PG:water, 300 mM
[19] = 45:25:30 Ethanol:PG:water, 600 mM
[20] = 50:20:30 Ethanol:PG:water, 600 mM
[21] = 50:25:25 Ethanol:PG:water, 600 mM
[22] = 50:30:20 Ethanol:PG:water, 600 mM
[23] = 55:20:25 Ethanol:PG:water, 600 mM
[24] = 60:20:20 Ethanol:PG:water, 600 mM
[25] = 10:30:60 Ethanol:PG:water, 4000 mM
[26] = 10:30:60 Ethanol:PG:water, 5000 mM
[27] = 10:30:60 Ethanol:PG:water, 5500 mM
[28] = 12:30:58 Ethanol:PG:water, 3300 mM
[29] = 15:30:55 Ethanol:PG:water, 500 mM
[30] = 50:30:20 Ethanol:PG:water, 750 mM
[31] = 20:30:50 Ethanol:PG:water, 1500 mM
[32] = 60:0:40 isopropanol:PG:water, 1500 mM
[33] = 10 mM topical, human lip and oral mucosa

Structure (SMILES): NC[C@H](O)c1ccc(O)c(O)c1.O=C(O)C(O)C(O)C(=O)O [Nep, L (−) norepinephrine-tartrate]
- Heat required to completely dissolve vasoconstrictor salt (#secs. at 100° C.) [1, 7]: 6 s
- Sample status after 24 hr at 4° C. [1, 7]: precipitate
- Sample status after 24 hr at ~22° C. [1, 7]: precipitate
- Heat required to completely dissolve vasoconstrictor salt (#secs. at 100° C.) [1, 8]: 24 s
- Sample status after 24 hr at 4° C. [1, 8]: precipitate
- Sample status after 24 hr at ~22° C. [1, 8]: precipitate
- Heat required to completely dissolve vasoconstrictor salt (#secs. at 100° C.) [1, 9]: 0 s
- Sample status after 24 hr at 4° C. [1, 9]: clear
- Sample status after 24 hr at ~22° C. [1, 9]: clear
- Heat required to completely dissolve vasoconstrictor salt (#secs. at 100° C.) [1, 10]: 0 s
- Sample status after 24 hr at 4° C. [1, 10]: clear
- Sample status after 24 hr at ~22° C. [1, 10]: clear
- Heat required to completely dissolve vasoconstrictor salt (#secs. at 100° C.) [1, 11]: 0 s
- Sample status after 24 hr at 4° C. [1, 11]: clear
- Sample status after 24 hr at ~22° C. [1, 11]: clear
- Heat required to completely dissolve vasoconstrictor salt (#secs. at 100° C.) [1, 12]: 0 s
- Sample status after 24 hr at 4° C. [1, 12]: clear
- Sample status after 24 hr at ~22° C. [1, 12]: clear
- Heat required to completely dissolve vasoconstrictor salt (#secs. at 100° C.) [1, 13]: 0 s
- Sample status after 24 hr at 4° C. [1, 13]: clear
- Sample status after 24 hr at ~22° C. [1, 13]: clear
- Heat required to completely dissolve vasoconstrictor salt (#secs. at 100° C.) [1, 14]: 18 s
- Sample status after 24 hr at 4° C. [1, 14]: precipitate
- Sample status after 24 hr at ~22° C. [1, 14]: precipitate
- Heat required to completely dissolve vasoconstrictor salt (#secs. at 100° C.) [1, 15]: 2 s
- Sample status after 24 hr at 4° C. [1, 15]: clear
- Sample status after 24 hr at ~22° C. [1, 15]: clear
- Heat required to completely dissolve vasoconstrictor salt (#secs. at 100° C.) [1, 16]: 2 s
- Sample status after 24 hr at 4° C. [1, 16]: clear
- Sample status after 24 hr at ~22° C. [1, 16]: clear
- Heat required to completely dissolve vasoconstrictor salt (#secs. at 100° C.) [1, 17]: 2 s
- Sample status after 24 hr at 4° C. [1, 17]: clear
- Sample status after 24 hr at ~22° C. [1, 17]: clear
- Heat required to completely dissolve vasoconstrictor salt (#secs. at 100° C.) [1, 18]: 2 s
- Sample status after 24 hr at 4° C. [1, 18]: clear
- Sample status after 24 hr at ~22° C. [1, 18]: clear
- Heat required to completely dissolve vasoconstrictor salt (#secs. at 100° C.) [1, 19]: 2 s
- Sample status after 24 hr at 4° C. [1, 19]: clear
- Sample status after 24 hr at ~22° C. [1, 19]: clear
- Heat required to completely dissolve vasoconstrictor salt (#secs. at 100° C.) [1, 20]: 1 s
- Sample status after 24 hr at 4° C. [1, 20]: clear
- Sample status after 24 hr at ~22° C. [1, 20]: clear
- Heat required to completely dissolve vasoconstrictor salt (#secs. at 100° C.) [1, 21]: 1 s
- Sample status after 24 hr at 4° C. [1, 21]: clear
- Sample status after 24 hr at ~22° C. [1, 21]: clear
- Heat required to completely dissolve vasoconstrictor salt (#secs. at 100° C.) [1, 22]: 1 s
- Sample status after 24 hr at 4° C. [1, 22]: clear
- Sample status after 24 hr at ~22° C. [1, 22]: clear
- Heat required to completely dissolve vasoconstrictor salt (#secs. at 100° C.) [1, 23]: 1 s
- Sample status after 24 hr at 4° C. [1, 23]: precipitate
- Sample status after 24 hr at ~22° C. [1, 23]: precipitate
- Heat required to completely dissolve vasoconstrictor salt (#secs. at 100° C.) [1, 24]: 2 s
- Sample status after 24 hr at 4° C. [1, 24]: clear
- Sample status after 24 hr at ~22° C. [1, 24]: clear
- Skin Blanch ([2]; 55:20:25 Ethanol:PG:water): +++++ (+++++ = 90-100% blanch)
- Skin Blanch ([2]; 60:20:20 Ethanol:PG:water): +++++ (+++++ = 90-100% blanch)
- Skin Irritation ([3]; 300 mM Nep): No
- Skin Irritation ([3]; 300 mM Nep, 0.8% SLS): No
- Skin Blanch ([3]; 300 mM Nep, 0.8% SLS, 20 min): 0
- Skin Blanch ([3]; 300 mM Nep, 20 min after topical application): 0
- Skin Irritation ([3]; 300 mM Nep, ethanol): No
- Skin Irritation ([3]; 300 mM Nep, ethanol, 0.8% SLS): Slight
- Skin Irritation ([3]; 300 mM Nep, ethanol, 5% Menthone): Slight
- Skin Irritation ([3]; 300 mM Nep, ethanol, PG): No
- Skin Irritation ([3]; 300 mM Nep, ethanol, PG, 0.3% SLS): No
- Skin Irritation ([3]; 300 mM Nep, ethanol, PG, 0.3% SLS, 5% Menthone): Yes
- Skin Blanch ([3]; 300 mM Nep, ethanol, PG, 0.3% SLS, 5% Menthone, 20 min): +++++ (+++++ = 90-100% blanch)
- Skin Irritation ([3]; 300 mM Nep, ethanol, PG, 5% Methone): No
- Skin Irritation ([3]; 300 mM Nep, ethanol, Transcutol): No
- Skin Irritation ([3]; 300 mM Nep, ethanol, Transcutol, 0.4% SLS): No
- Skin Irritation ([3]; 600 mM NEp, ethanol, PG): No
- Skin Blanch ([3]; 600 mM NEp, ethanol, PG, 20 min): +++++ (+++++ = 90-100% blanch)
- Skin Irritation ([3]; 750 mM NEp, ethanol, PG): No
- Skin Blanch ([3]; 750 mM NEp, ethanol, PG, 20 min): +++++ (+++++ = 90-100% blanch)

Structure (SMILES): CNC[C@H](O)c1cccc(O)c1.Cl [PhE, R (−) phenylephrine-HCl]
- Heat required to completely dissolve vasoconstrictor salt (#secs. at 100° C.) [1, 25]: 12 s
- Sample status after 24 hr at 4° C. [1, 25]: precipitate
- Sample status after 24 hr at ~22° C. [1, 25]: precipitate
- Heat required to completely dissolve vasoconstrictor salt (#secs. at 100° C.) [1, 26]: 12 s
- Sample status after 24 hr at 4° C. [1, 26]: precipitate
- Sample status after 24 hr at ~22° C. [1, 26]: precipitate
- Heat required to completely dissolve vasoconstrictor salt (#secs. at 100° C.) [1, 27]: 16 s
- Sample status after 24 hr at 4° C. [1, 27]: precipitate
- Sample status after 24 hr at ~22° C. [1, 27]: precipitate
- Heat required to completely dissolve vasoconstrictor salt (#secs. at 100° C.) [1, 28]: 8 s
- Sample status after 24 hr at 4° C. [1, 28]: precipitate
- Sample status after 24 hr at ~22° C. [1, 28]: precipitate
- Heat required to completely dissolve vasoconstrictor salt (#secs. at 100° C.) [1, 29]: 8 s
- Sample status after 24 hr at 4° C. [1, 29]: precipitate
- Sample status after 24 hr at ~22° C. [1, 29]: clear

Structure (SMILES): CNC[C@H](O)c1ccc(O)c(O)c1.Cl (racemic) [Epi (±), (±) epinephrine-HCl]
- Heat required to completely dissolve vasoconstrictor salt (#secs. at 100° C.) [1, 30]: 0 s
- Sample status after 24 hr at 4° C. [1, 30]: clear
- Sample status after 24 hr at ~22° C. [1, 30]: clear
- skin blanch in treated skin field ([4]; by 120 min): single blanched field
- coat protection on day 20 ([4]; four applications, 7.5 Gy whole-body γ radiation): confluent area of protected coat

Structure (SMILES): CNC[C@H](O)c1ccc(O)c(O)c1.O=C(O)C(O)C(O)C(=O)O [Epi, L (−) epinephrine-tartrate]
- Heat required to completely dissolve vasoconstrictor salt (#secs. at 100° C.) [1, 13]: 0 s
- Sample status after 24 hr at 4° C. [1, 13]: clear
- Sample status after 24 hr at ~22° C. [1, 13]: clear
- Heat required to completely dissolve vasoconstrictor salt (#secs. at 100° C.) [1, 31]: 0 s
- Sample status after 24 hr at 4° C. [1, 31]: clear
- Sample status after 24 hr at ~22° C. [1, 31]: clear
- Heat required to completely dissolve vasoconstrictor salt (#secs. at 100° C.) [1, 32]: 0 s
- Sample status after 24 hr at 4° C. [1, 32]: clear
- Sample status after 24 hr at ~22° C. [1, 32]: clear
- blanch response ([5]; 1 mM solution swabbed on lower lip and oral mucosa during first 20 min, human): little blanch response
- duration of blanching ([5]; 10 mM topical, four times over 50 min, human lip and oral mucosa): 1.5 to 2 h
- time to clear blanching of lip and mucosa [5, 33]: ≤ 20 min
- time to normal color lip and mucosa [5, 33]: ≤ 3 h
- topical concentration completely protective against γ radiation-induced pathology ([6]; hamster cheek pouch mucosal surface): 400 μM
- mucosal pathology ([6]; large excess doses combined with 24 min of irradiation (40 Gy)): severe mucosal pathology
- mucosal pathology ([6]; large excess doses without irradiation): no discernible mucosal pathology

Structure (SMILES): COc1ccc(OC)c(C(O)C(C)N)c1 (stereo not drawn) [Methoxamine]
- potency to induce skin blanch ([2]; applied to unbroken human skin): lacks the potency to adequately induce skin blanch
